From ChEMBL document CHEMBL1157706, “Inhibitors of human tyrosyl-DNA phospodiesterase (hTdp1) developed by virtual screening using ligand-based pharmacophores” (Bioorg Med Chem, 2010)

How the values were obtained:
[1] = molecular target: T1, Tyrosyl-DNA phosphodiesterase 1 (Homo sapiens, UniProt Q9NUW8); assay: Inhibition of human tyrosyl-DNA phosphodiesterase 1 after 30 mins by alpha high throughput screening assay in presence of 0.05% Tween-20
[2] = molecular target: T1, Tyrosyl-DNA phosphodiesterase 1; assay: Inhibition of human tyrosyl-DNA phosphodiesterase 1 after 30 mins by alpha high throughput screening assay in presence of 0.01% Tween-20
[3] = molecular target: T1, Tyrosyl-DNA phosphodiesterase 1; assay: Inhibition of human tyrosyl-DNA phosphodiesterase 1 after 30 mins by alpha high throughput screening assay

T1 sequence (Q9NUW8 whole entry): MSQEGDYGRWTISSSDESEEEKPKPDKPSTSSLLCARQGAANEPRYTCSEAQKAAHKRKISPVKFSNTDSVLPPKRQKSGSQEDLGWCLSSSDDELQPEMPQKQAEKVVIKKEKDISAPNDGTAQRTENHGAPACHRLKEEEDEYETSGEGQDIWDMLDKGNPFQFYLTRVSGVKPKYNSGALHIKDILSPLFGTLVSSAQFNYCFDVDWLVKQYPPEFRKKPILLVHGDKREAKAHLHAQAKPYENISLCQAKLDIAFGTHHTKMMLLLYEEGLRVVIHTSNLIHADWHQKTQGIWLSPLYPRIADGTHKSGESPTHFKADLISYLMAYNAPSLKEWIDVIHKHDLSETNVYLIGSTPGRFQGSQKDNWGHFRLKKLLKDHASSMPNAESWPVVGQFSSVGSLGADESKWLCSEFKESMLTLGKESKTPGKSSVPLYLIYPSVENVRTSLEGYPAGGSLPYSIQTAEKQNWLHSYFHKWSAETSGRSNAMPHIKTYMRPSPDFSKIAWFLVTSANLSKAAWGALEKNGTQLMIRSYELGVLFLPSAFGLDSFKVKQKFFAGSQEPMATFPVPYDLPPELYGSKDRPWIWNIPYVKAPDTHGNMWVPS

SMILES	IC50 [1] [µM]	IC50 [2] [µM]	IC50 [3] [µM]
COc1cc(/C=C/C(=O)OC(C(=O)N2CCCCC2)c2ccccc2)ccc1O (stereo not drawn)	70.8	79.4	–
O=c1c2ccccc2c2ccccc2c(=O)n1-c1cccc2c1ccc1c3ccccc3ccc21	–	–	5
Fc1cccc(Cl)c1/C=N/N=C1c2ccccc2-c2ccccc21	–	–	14
O=C(OCc1cn2ccccc2n1)c1c2c(nc3ccccc13)CCC2	50.1	35.5	–

The next lines start with results.

IC50 [1] [µM]	IC50 [2] [µM]	SMILES	IC50 [3] [µM]
50.1	44.7	CCOC(=O)c1sc(N2C(=O)c3oc4ccc(F)cc4c(=O)c3C2c2ccc(C)cc2)nc1C (stereo not drawn)	–
22.4	14.1	CCOc1cccc2cc(C(=O)OCC(=O)c3c[nH]c4ccccc34)c(=O)oc12	–
79.4	100	Cc1cc(C)nc(N/C=C(\C#N)C(=O)c2cccc(CSc3ccccc3)c2)n1	–
11.2	7.94	CCOC(=O)CN(C(=O)COC(=O)Cc1c[nH]c2ccccc12)c1ccc(F)cc1	–
89.1	44.7	COC(=O)c1ccc(COc2ccc(C3Nc4ccccc4C(=O)N3C3CC3)cc2OC)cc1 (stereo not drawn)	–
44.7	31.6	O=C(/C=C/c1ccc(C(F)(F)F)cc1)OC(C(=O)NC1CC1)c1ccccc1 (stereo not drawn)	–
